Assay [1] has as its system Mycobacterium tuberculosis. Nature of the assay: Induction of resistance development in Mycobacterium tuberculosis harbouring katG F594C mutant assessed as resistance frequency at 5 times of MIC by visual analysis. It counts as functional.
Assay [2] deals with Mycobacterium tuberculosis. The experiment in a line: Induction of resistance development in Mycobacterium tuberculosis harbouring atpE gene assessed as resistance frequency at 5 times of MIC by visual analysis. It counts as functional.

With `C[C@]1(COc2ccc(N3CCC(Oc4ccc(OC(F)(F)F)cc4)CC3)cc2)Cn2cc([N+](=O)[O-])nc2O1`, the Activity in assay [1] came to 2%.

In the case of `COc1nc2ccc(Br)cc2cc1[C@@H](c1ccccc1)[C@@](O)(CCN(C)C)c1cccc2ccccc12` [BEDAQUILINE], the results for the Activity in assay [2] and in assay [1] were 17.3% and 5.26%, respectively.

For the origin of these results see ChEMBL document CHEMBL5528062 (J Med Chem, 2024).
